Data: ChEMBL document CHEMBL1144192, “Synthesis and activity of 1-(3-amino-1-phenylpropyl)indolin-2-ones: a new class of selective norepinephrine reuptake inhibitors” (Bioorg Med Chem Lett, 2008)
pIC50: −log10 of the molar value.

Legend:
[1] = target: Sodium-dependent noradrenaline transporter (Homo sapiens, UniProt P23975)
Description: Inhibition of norepinephrine uptake at human NET expressed in MDCK cells

[2] = target: Sodium-dependent serotonin transporter (Homo sapiens, UniProt P31645); assay type: cell-based, JAR
Description: Inhibition of serotonin uptake at human SERT expressed in JAR cells

[3] = target: Sodium-dependent dopamine transporter (Homo sapiens) (UniProt Q01959); assay: Displacement of [3H]WIN-35428 from human recombinant DAT expressed in CHO cells at 1 uM; assay type: cell-based
Sodium-dependent dopamine transporter (Homo sapiens), sequence (Q01959 whole entry): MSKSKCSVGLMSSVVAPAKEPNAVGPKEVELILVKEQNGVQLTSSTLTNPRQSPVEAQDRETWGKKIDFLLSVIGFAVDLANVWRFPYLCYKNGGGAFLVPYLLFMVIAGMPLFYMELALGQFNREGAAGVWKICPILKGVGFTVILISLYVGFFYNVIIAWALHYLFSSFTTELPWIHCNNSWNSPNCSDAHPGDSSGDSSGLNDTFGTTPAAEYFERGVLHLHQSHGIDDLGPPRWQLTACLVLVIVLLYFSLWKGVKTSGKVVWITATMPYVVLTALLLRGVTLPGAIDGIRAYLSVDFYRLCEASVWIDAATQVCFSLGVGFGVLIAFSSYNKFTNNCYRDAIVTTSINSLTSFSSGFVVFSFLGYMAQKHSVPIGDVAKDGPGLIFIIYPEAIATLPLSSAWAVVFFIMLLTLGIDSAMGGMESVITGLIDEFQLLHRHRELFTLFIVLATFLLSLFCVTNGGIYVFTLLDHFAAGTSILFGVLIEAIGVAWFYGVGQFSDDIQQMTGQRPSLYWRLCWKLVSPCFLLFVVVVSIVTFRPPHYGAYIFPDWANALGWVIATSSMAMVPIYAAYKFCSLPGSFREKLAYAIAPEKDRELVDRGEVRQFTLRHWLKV

Sodium-dependent serotonin transporter, sequence (P31645 whole entry): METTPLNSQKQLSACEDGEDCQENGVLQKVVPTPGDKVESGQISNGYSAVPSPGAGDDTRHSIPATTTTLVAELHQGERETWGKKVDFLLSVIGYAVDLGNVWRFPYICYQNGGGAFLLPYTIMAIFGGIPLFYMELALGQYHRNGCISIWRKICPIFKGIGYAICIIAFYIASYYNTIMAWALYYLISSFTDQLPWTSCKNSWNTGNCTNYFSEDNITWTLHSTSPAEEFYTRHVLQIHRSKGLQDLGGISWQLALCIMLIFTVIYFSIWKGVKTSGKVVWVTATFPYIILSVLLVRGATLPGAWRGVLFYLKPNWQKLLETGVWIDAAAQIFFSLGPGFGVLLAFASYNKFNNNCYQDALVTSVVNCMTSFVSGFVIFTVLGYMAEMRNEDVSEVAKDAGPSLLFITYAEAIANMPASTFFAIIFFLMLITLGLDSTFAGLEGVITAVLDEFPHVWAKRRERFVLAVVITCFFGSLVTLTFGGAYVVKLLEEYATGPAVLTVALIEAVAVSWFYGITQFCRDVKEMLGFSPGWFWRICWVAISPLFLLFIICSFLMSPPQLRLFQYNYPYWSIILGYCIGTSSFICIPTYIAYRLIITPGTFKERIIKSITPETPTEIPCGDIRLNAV
Sodium-dependent noradrenaline transporter, sequence (P23975 whole entry): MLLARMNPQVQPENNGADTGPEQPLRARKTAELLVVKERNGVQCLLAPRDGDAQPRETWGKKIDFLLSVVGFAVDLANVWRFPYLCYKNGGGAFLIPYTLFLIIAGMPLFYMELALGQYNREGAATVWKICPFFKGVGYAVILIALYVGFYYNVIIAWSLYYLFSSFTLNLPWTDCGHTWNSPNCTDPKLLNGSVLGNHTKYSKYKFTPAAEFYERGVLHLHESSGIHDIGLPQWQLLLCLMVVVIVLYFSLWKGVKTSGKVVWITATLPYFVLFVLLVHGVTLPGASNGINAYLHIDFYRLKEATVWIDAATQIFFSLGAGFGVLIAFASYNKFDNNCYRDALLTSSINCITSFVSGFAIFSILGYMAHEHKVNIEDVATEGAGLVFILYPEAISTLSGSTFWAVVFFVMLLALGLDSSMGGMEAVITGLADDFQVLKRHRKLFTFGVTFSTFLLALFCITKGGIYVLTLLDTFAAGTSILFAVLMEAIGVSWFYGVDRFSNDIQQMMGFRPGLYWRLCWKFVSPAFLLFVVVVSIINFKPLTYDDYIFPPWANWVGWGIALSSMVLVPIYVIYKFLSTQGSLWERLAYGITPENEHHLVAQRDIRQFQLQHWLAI

Row | Structure (SMILES) | pIC50 [1] | pIC50 [2] | Activity [3]
1 | CNCC[C@H](c1cccc(Cl)c1)N1C(=O)C(C)(C)c2cccc(F)c21 | 8.15 | 6.54 | 10%
2 | CNCC[C@H](c1cccc(F)c1)N1C(=O)C(C)(C)c2cccc(F)c21 | 7.85 | 5.59 | 7%
3 | CNCC[C@@H](c1ccccc1)N1C(=O)C(C)(C)c2ccccc21 | < 5.52 | 5.71 | 3%
4 | CNCCC(c1ccccc1)n1ccc2ccccc21 (configuration not stated) | 7.33 | 6.49 | 44%
5 | CNCC[C@H](c1cc(F)cc(F)c1)N1C(=O)C(C)(C)c2cccc(F)c21 | 8.22 | 6.48 | 0%
6 | CNCC[C@H](c1cccc(F)c1)N1C(=O)C2(CCCCC2)c2ccccc21 | 7.59 | < 5.52 | 20%
7 | CNCC[C@H](c1ccccc1)N1C(=O)C(C)(C)c2ccccc21 | 8.15 | 5.87 | 0%
8 | CNCC[C@H](c1cc(F)cc(Cl)c1)N1C(=O)C(C)(C)c2cccc(F)c21 | 7.72 | < 5.52 | 0%
9 | CNCCC(Oc1ccccc1OC)c1ccccc1 (configuration not stated) [NISOXETINE] |  | 6.56 | 
10 | CNCC[C@@H](c1ccccc1)N1C(=O)C2(CCCCC2)c2ccccc21 | < 5.52 | 5.76 | 0%
11 | CNCC[C@@H](c1cccc(F)c1)N1C(=O)C2(CCCCC2)c2ccccc21 | < 5.52 | 5.94 | 1%
12 | CNCC[C@H](c1ccccc1)N1C(=O)C2(CCCCC2)c2ccccc21 | 7.28 | < 5.52 | 26%
13 | CNCC[C@H](c1ccccc1)N1C(=O)C(C)(C)c2cccc(F)c21 | 6.76 | < 5.52 | 3%
